Measured values published in patent publication EP0394553A2, “Use of fluorine containing pyridone carboxylic acid derivatives for preparing a medicament for the treatment of HIV infections” (DAIICHI PHARMACEUTICAL CO., LTD., priority 1989, dated 1990).
Read-outs that look alike come from different tables or passages of the source.

Legend:
HIV (LAV 1) = assay: microbe, parasite or virus in culture; details: for Viable cell count / Viral antigen-positive cell percentage: 4-day addition; for viability at 1 µg/mL / viability at 2.5 µg/mL / viability at 5 µg/mL / viability at 10 µg/mL: Human immunodeficiency virus 1, CCRF-CEM
Outline: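 CEM cells were infected with HIV LAV 1 at MOI 0.05 and cultured with test substance at 10, 5, 2.5 or 1 mcg/ml, with medium exchanged periodically up to 30 days. Viable cell count and percentage were measured by trypan blue, and antigen-positive cells by immunofluorescence with anti-HIV antiserum, at 4–30 days. Values are means of two wells.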

in vivo = details: mouse, po

## CCn1cc(C(=O)O)c(=O)c2cc(F)c(N3CCNCC3)cc21 [NFLX, 1-ethyl-6-fluoro-1,4-dihydro-4-oxo-7-(1-piperazinyl)-3-quinolinecarboxylic acid]
HIV (LAV 1); 1 mcg/ml, after 4 days
  Viable cell count: 230 × 10⁴ cells/ml
  Viral antigen-positive cell percentage: 88%
HIV (LAV 1); 1 mcg/ml, after 7 days
  Viable cell count: 52 × 10⁴ cells/ml
  Viral antigen-positive cell percentage: 75%
HIV (LAV 1); 1 mcg/ml, after 10 days
  Viable cell count: 26 × 10⁴ cells/ml
HIV (LAV 1); 1 mcg/ml, after 20 days
  Viable cell count: 0 × 10⁴ cells/ml
HIV (LAV 1); 1 mcg/ml, after 30 days
  Viable cell count: 0 × 10⁴ cells/ml
HIV (LAV 1); 2.5 mcg/ml, after 4 days
  Viable cell count: 240 × 10⁴ cells/ml
  Viral antigen-positive cell percentage: 93%
HIV (LAV 1); 2.5 mcg/ml, after 7 days
  Viable cell count: 59 × 10⁴ cells/ml
  Viral antigen-positive cell percentage: 55%
HIV (LAV 1); 2.5 mcg/ml, after 10 days
  Viable cell count: 40 × 10⁴ cells/ml
HIV (LAV 1); 2.5 mcg/ml, after 20 days
  Viable cell count: 2 × 10⁴ cells/ml
HIV (LAV 1); 2.5 mcg/ml, after 30 days
  Viable cell count: 70 × 10⁴ cells/ml
  Viral antigen-positive cell percentage: ≦1%
HIV (LAV 1); 5 mcg/ml, after 4 days
  Viable cell count: 230 × 10⁴ cells/ml
  Viral antigen-positive cell percentage: 83%
HIV (LAV 1); 5 mcg/ml, after 7 days
  Viable cell count: 84 × 10⁴ cells/ml
  Viral antigen-positive cell percentage: 65%
HIV (LAV 1); 5 mcg/ml, after 10 days
  Viable cell count: 86 × 10⁴ cells/ml
HIV (LAV 1); 5 mcg/ml, after 20 days
  Viable cell count: 28 × 10⁴ cells/ml
HIV (LAV 1); 5 mcg/ml, after 30 days
  Viable cell count: 330 × 10⁴ cells/ml
  Viral antigen-positive cell percentage: ≦1%
HIV (LAV 1); 10 mcg/ml, after 4 days
  Viable cell count: 180 × 10⁴ cells/ml
  Viral antigen-positive cell percentage: 92%
HIV (LAV 1); 10 mcg/ml, after 7 days
  Viable cell count: 60 × 10⁴ cells/ml
  Viral antigen-positive cell percentage: 63%
HIV (LAV 1); 10 mcg/ml, after 10 days
  Viable cell count: 250 × 10⁴ cells/ml
  Viral antigen-positive cell percentage: 50%
HIV (LAV 1); 10 mcg/ml, after 20 days
  Viable cell count: 370 × 10⁴ cells/ml
  Viral antigen-positive cell percentage: 4%
HIV (LAV 1); 10 mcg/ml, after 30 days
  Viable cell count: 400 × 10⁴ cells/ml
  Viral antigen-positive cell percentage: ≦1%
HIV (LAV 1); 96 h, read-out: Viable cell percentage, 1 mcg/ml, 4-day addition, after 4 days
  viability at 1 µg/mL: 94%
HIV (LAV 1); 96 h, read-out: Viable cell percentage, 2.5 mcg/ml, 4-day addition, after 4 days
  viability at 2.5 µg/mL: 94%
HIV (LAV 1); 96 h, read-out: Viable cell percentage, 5 mcg/ml, 4-day addition, after 4 days
  viability at 5 µg/mL: 94%
HIV (LAV 1); 96 h, read-out: Viable cell percentage, 10 mcg/ml, 4-day addition, after 4 days
  viability at 10 µg/mL: 92%
HIV (LAV 1); read-out: Viable cell percentage, 1 mcg/ml, 4-day addition, after 7 days
  viability at 1 µg/mL: 59%
HIV (LAV 1); read-out: Viable cell percentage, 1 mcg/ml, 4-day addition, after 10 days
  viability at 1 µg/mL: 30%
HIV (LAV 1); read-out: Viable cell percentage, 1 mcg/ml, 4-day addition, after 20 days
  viability at 1 µg/mL: 0%
HIV (LAV 1); read-out: Viable cell percentage, 1 mcg/ml, 4-day addition, after 30 days
  viability at 1 µg/mL: 0%
HIV (LAV 1); read-out: Viable cell percentage, 2.5 mcg/ml, 4-day addition, after 7 days
  viability at 2.5 µg/mL: 67%
HIV (LAV 1); read-out: Viable cell percentage, 2.5 mcg/ml, 4-day addition, after 10 days
  viability at 2.5 µg/mL: 47%
HIV (LAV 1); read-out: Viable cell percentage, 2.5 mcg/ml, 4-day addition, after 20 days
  viability at 2.5 µg/mL: 33%
HIV (LAV 1); read-out: Viable cell percentage, 2.5 mcg/ml, 4-day addition, after 30 days
  viability at 2.5 µg/mL: 96%
HIV (LAV 1); read-out: Viable cell percentage, 5 mcg/ml, 4-day addition, after 7 days
  viability at 5 µg/mL: 67%
HIV (LAV 1); read-out: Viable cell percentage, 5 mcg/ml, 4-day addition, after 10 days
  viability at 5 µg/mL: 61%
HIV (LAV 1); read-out: Viable cell percentage, 5 mcg/ml, 4-day addition, after 20 days
  viability at 5 µg/mL: 81%
HIV (LAV 1); read-out: Viable cell percentage, 5 mcg/ml, 4-day addition, after 30 days
  viability at 5 µg/mL: 95%
HIV (LAV 1); read-out: Viable cell percentage, 10 mcg/ml, 4-day addition, after 7 days
  viability at 10 µg/mL: 71%
HIV (LAV 1); read-out: Viable cell percentage, 10 mcg/ml, 4-day addition, after 10 days
  viability at 10 µg/mL: 91%
HIV (LAV 1); read-out: Viable cell percentage, 10 mcg/ml, 4-day addition, after 20 days
  viability at 10 µg/mL: 97%
HIV (LAV 1); read-out: Viable cell percentage, 10 mcg/ml, 4-day addition, after 30 days
  viability at 10 µg/mL: 94%
In vivo
  LD50: ≥ 4000 mg/kg
